According to the NIST ThermoML archive (doi:10.1016/j.jct.2016.10.031):

Assay: molar heat capacity at constant pressure
Settings: 101.33 kPa, Small (less than 1 g) adiabatic calorimetry

CC(C)(C)c1ccc(Oc2ccc([N+](=O)[O-])cc2)cc1 [1-(tert-butyl)-4-(4-nitrophenoxy)benzene]
Settings | molar heat capacity at constant pressure [J/K/mol]
210.18 K, Glass | 258.75
210.65 K, Crystal | 255.67
211.38 K, Glass | 260.08
211.85 K, Crystal | 257
212.58 K, Glass | 261.24
213.05 K, Crystal | 258.5
213.78 K, Glass | 262.57
214.26 K, Crystal | 259.91
214.99 K, Glass | 263.98
215.46 K, Crystal | 261.07
216.19 K, Glass | 265.4
216.66 K, Crystal | 262.4
217.4 K, Glass | 266.56
217.87 K, Crystal | 263.65
218.61 K, Glass | 267.89
219.07 K, Crystal | 265.56
220 K, Crystal | 266.48
220.27 K, Crystal | 266.4
221.02 K, Glass | 272.13
221.47 K, Crystal | 268.06
222.24 K, Glass | 272.71
222.68 K, Crystal | 269.47
223.45 K, Glass | 273.71
223.88 K, Crystal | 270.8
224.67 K, Glass | 275.46
225.09 K, Crystal | 272.13
225.88 K, Glass | 277.37
226.29 K, Crystal | 273.38
227.1 K, Glass | 279.45
227.5 K, Crystal | 274.88
228.32 K, Glass | 281.53
228.7 K, Crystal | 276.37
229.54 K, Glass | 283.61
229.91 K, Crystal | 277.7
230 K, Crystal | 277.79
230.75 K, Glass | 286.52
231.12 K, Crystal | 278.7
231.96 K, Glass | 291.09
232.32 K, Crystal | 280.03
233.16 K, Glass | 296.83
233.53 K, Crystal | 281.78
234.33 K, Metastable liquid | 313.12
234.74 K, Crystal | 283.36
235.47 K, Metastable liquid | 327.51
235.95 K, Crystal | 284.69
236.57 K, Metastable liquid | 370.08
237.15 K, Crystal | 286.77
237.72 K, Metastable liquid | 379.14
238.37 K, Crystal | 287.51
238.92 K, Metastable liquid | 380.05
239.58 K, Crystal | 289.09
240 K, Crystal | 289.26
240.13 K, Metastable liquid | 380.22
240.79 K, Crystal | 290.51
241.35 K, Metastable liquid | 381.3
242 K, Crystal | 291.5
242.56 K, Metastable liquid | 382.3
243.21 K, Crystal | 292.84
243.77 K, Metastable liquid | 383.46
244.43 K, Crystal | 294.58
244.99 K, Metastable liquid | 384.21
245.64 K, Crystal | 295.99
246.85 K, Crystal | 297.24
248.06 K, Crystal | 298.57
249.28 K, Crystal | 300.07
250 K, Crystal | 300.9
250.5 K, Crystal | 301.73
251.71 K, Crystal | 302.73
252.92 K, Crystal | 304.39
254.14 K, Crystal | 305.89
255.35 K, Crystal | 307.72
256.57 K, Crystal | 309.05
257.78 K, Crystal | 310.55
259 K, Crystal | 311.96
260 K, Crystal | 312.62
260.22 K, Crystal | 313.46
261.44 K, Crystal | 315.12
